# Earlier results, collected in patent publication US11202772B2, “Duloxetine sprinkles” (priority 2016, dated 2021).
structure (smiles),measurement,setting,value
"CNCCC(Oc1cccc2ccccc12)c1cccs1 (single isomer, unassigned; (+)) [Duloxetine, (+)-N-methyl-3-(1-naphthalenyloxy)-3-(2-thienyl)propan-1-amine]",drug in the dosage hydrolyzed to 1-naphthol,pH 1.0,50%
same,drug degrades to 1-naphthol,"pH of 2.0, in one hour",10%
same,time for 10% degradation,pH of 4.0,up to 63 hours
